Experimental data reported in ChEMBL document CHEMBL1201862, “PubChem BioAssay data set” (2004).
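Results reflect a 48-hour exposure of cells in 96-well plates to compound at five concentrations. Here, GI50 denotes the concentration required for 50% inhibition of growth.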 Active and inactive are the calls of the source. No stated cut-off is given here; in the data, active = GI50 up to about 1.1 µM and inactive = higher.

Legend:
Assay in all cases: NCI anticancer screen, dose series, 48 h
ACHN = system: ACHN
CCRF-CEM = system: CCRF-CEM
HCT-15 = system: HCT-15
HT-29 = system: HT-29
IGROV-1 = system: IGROV-1
KM12 = system: KM12
M19-MEL = system: M19-MEL
Malme-3M = system: Malme-3M
NCI-H226 = system: NCI-H226
OVCAR-4 = system: OVCAR-4
OVCAR-8 = system: OVCAR-8
RPMI-8226 = system: RPMI-8226
SF-268 = system: SF-268
SN12C = system: SN12C
SW-620 = system: SW-620
U-251 = system: U-251
DU-145 = system: DU-145
Hs-578T = system: Hs-578T
NCI/ADR-RES = system: NCI/ADR-RES
RXF 393 = system: RXF 393

| Structure (SMILES) | GI50 (ACHN) | GI50 (CCRF-CEM) | GI50 (HCT-15) [µM] | GI50 (HT-29) | GI50 (IGROV-1) | GI50 (KM12) | GI50 (M19-MEL) | GI50 (Malme-3M) | GI50 (NCI-H226) | GI50 (OVCAR-4) | GI50 (OVCAR-8) | GI50 (RPMI-8226) | GI50 (SF-268) | GI50 (SN12C) | GI50 (SW-620) | GI50 (U-251) | GI50 (DU-145) | GI50 (Hs-578T) | GI50 (NCI/ADR-RES) | GI50 (RXF 393) |
| --- | --- | --- | --- | --- | --- | --- | --- | --- | --- | --- | --- | --- | --- | --- | --- | --- | --- | --- | --- | --- |
| Cc1ccc(C2(O)CC(c3ccc([N+](=O)[O-])o3)=NN2C(=O)COc2ccccc2Cl)cc1 (configuration not stated) | 5.08 µM (inactive) | 5.45 µM (inactive) | 4.68 | 4.21 µM (inactive) | 15.9 µM (inactive) | 8.83 µM (inactive) | 3.69 µM (inactive) | 13.8 µM (inactive) | 50.5 µM (inactive) | 17.3 µM (inactive) | 11.2 µM (inactive) | 3.53 µM (inactive) | 10.5 µM (inactive) | 8.22 µM (inactive) | 6.7 µM (inactive) | 9.68 µM (inactive) | – | – | – | – |
| c1ccc2cc(NCNc3ccc4ccccc4c3)ccc2c1 | 16.3 µM (inactive) | 11.8 µM (inactive) | 15.6 | 19 µM (inactive) | 7.52 µM (inactive) | 13.6 µM (inactive) | – | 0.927 µM (active) | 17.2 µM (inactive) | 12.5 µM (inactive) | 17.5 µM (inactive) | 6.1 µM (inactive) | 38.8 µM (inactive) | 9.53 µM (inactive) | 34.2 µM (inactive) | 23.3 µM (inactive) | 14.4 µM (inactive) | 37.8 µM (inactive) | 21.7 µM (inactive) | 10.3 µM (inactive) |
| C[C@]12CC[C@H](O)C[C@@H]1CC[C@@H]1[C@@H]2CC[C@]2(C)[C@@H](c3cc(C(F)(F)F)[nH]n3)CC[C@@H]12 | 7.21 µM (inactive) | 0.957 µM (active) | 6.32 | 4.27 µM (inactive) | 6.32 µM (inactive) | 10.1 µM (inactive) | – | > 37.3 µM (inactive) | 14.6 µM (inactive) | 6.64 µM (inactive) | 5.35 µM (inactive) | 3.96 µM (inactive) | > 33 µM (inactive) | 7.59 µM (inactive) | 12.1 µM (inactive) | 7.01 µM (inactive) | 10.9 µM (inactive) | > 35.6 µM (inactive) | 6.32 µM (inactive) | 4.15 µM (inactive) |
| COC(=O)C1=C(C)NC(C)=C(C(=O)OC)C1c1ccc(/[N+]([O-])=C/c2ccccc2)cc1 | 17.4 µM (inactive) | 17 µM (inactive) | 42.5 | 48.9 µM (inactive) | > 100 µM (inactive) | > 100 µM (inactive) | – | 17.3 µM (inactive) | 62.4 µM (inactive) | 17.3 µM (inactive) | 19.7 µM (inactive) | 66.1 µM (inactive) | > 100 µM (inactive) | 51.5 µM (inactive) | 20 µM (inactive) | > 100 µM (inactive) | > 100 µM (inactive) | 41.3 µM (inactive) | 66.5 µM (inactive) | 19.7 µM (inactive) |
| CCC/N=C(/NC(=O)c1ccc(Cl)cc1)SC | 39.8 µM (inactive) | > 100 µM (inactive) | 47.9 | 97.3 µM (inactive) | > 100 µM (inactive) | > 100 µM (inactive) | – | > 100 µM (inactive) | 43.1 µM (inactive) | 50.9 µM (inactive) | > 100 µM (inactive) | 26.5 µM (inactive) | 88.9 µM (inactive) | > 100 µM (inactive) | > 100 µM (inactive) | > 100 µM (inactive) | > 100 µM (inactive) | 12.1 µM (inactive) | > 100 µM (inactive) | > 100 µM (inactive) |
| CNC(c1ccncc1)C(NC)c1ccncc1 (configuration not stated) | > 100 µM (inactive) | > 100 µM (inactive) | > 100 | > 100 µM (inactive) | > 100 µM (inactive) | > 100 µM (inactive) | – | > 100 µM (inactive) | > 100 µM (inactive) | > 100 µM (inactive) | > 100 µM (inactive) | > 100 µM (inactive) | > 100 µM (inactive) | > 100 µM (inactive) | > 100 µM (inactive) | > 100 µM (inactive) | > 100 µM (inactive) | 90.8 µM (inactive) | > 100 µM (inactive) | > 100 µM (inactive) |
| CC(=O)Nc1ccc(S(=O)(=O)c2nnc(NC(C)=O)s2)cc1 | > 100 µM (inactive) | > 100 µM (inactive) | > 100 | > 100 µM (inactive) | > 100 µM (inactive) | > 100 µM (inactive) | – | > 100 µM (inactive) | > 100 µM (inactive) | > 100 µM (inactive) | > 100 µM (inactive) | > 100 µM (inactive) | > 100 µM (inactive) | > 100 µM (inactive) | > 100 µM (inactive) | > 100 µM (inactive) | > 100 µM (inactive) | > 100 µM (inactive) | > 100 µM (inactive) | > 100 µM (inactive) |
| O=C1c2ccccc2NC(=S)[C@@H]2CCCN12 | > 100 µM (inactive) | > 100 µM (inactive) | > 100 | > 100 µM (inactive) | > 100 µM (inactive) | > 100 µM (inactive) | – | > 100 µM (inactive) | > 100 µM (inactive) | > 100 µM (inactive) | > 100 µM (inactive) | > 100 µM (inactive) | > 100 µM (inactive) | > 100 µM (inactive) | > 100 µM (inactive) | > 100 µM (inactive) | > 100 µM (inactive) | > 100 µM (inactive) | > 100 µM (inactive) | > 100 µM (inactive) |
| COc1cc(C)c(/C=C/C(=O)N2C(=O)OC[C@@H]2c2ccccc2)c(C)c1 | > 100 µM (inactive) | 61.8 µM (inactive) | 74 | 18.6 µM (inactive) | > 100 µM (inactive) | 61.9 µM (inactive) | – | > 100 µM (inactive) | > 100 µM (inactive) | 81.3 µM (inactive) | 40.2 µM (inactive) | 48.3 µM (inactive) | > 100 µM (inactive) | > 100 µM (inactive) | > 100 µM (inactive) | > 100 µM (inactive) | 37.6 µM (inactive) | 88.9 µM (inactive) | 28.6 µM (inactive) | 9.02 µM (inactive) |
| Cc1ccc(OCC2OC(n3cnc4nc(Cl)nc(Cl)c43)CC2Oc2ccc(C)cc2)cc1 (configuration not stated) | 3.05 µM (inactive) | 2.99 µM (inactive) | 2.36 | 5.85 µM (inactive) | 5.36 µM (inactive) | 8.73 µM (inactive) | – | 13.6 µM (inactive) | 12 µM (inactive) | 15.7 µM (inactive) | 13.1 µM (inactive) | 2.62 µM (inactive) | 7.01 µM (inactive) | 7.31 µM (inactive) | 3.76 µM (inactive) | 11.1 µM (inactive) | 12.9 µM (inactive) | 11.9 µM (inactive) | 15.3 µM (inactive) | 3.85 µM (inactive) |
| N#CCN(CC#N)C1CC=CCC1N(CC#N)CC#N (configuration not stated) | > 100 µM (inactive) | > 100 µM (inactive) | > 100 | > 100 µM (inactive) | > 100 µM (inactive) | > 100 µM (inactive) | – | > 100 µM (inactive) | > 100 µM (inactive) | > 100 µM (inactive) | > 100 µM (inactive) | > 100 µM (inactive) | > 100 µM (inactive) | > 100 µM (inactive) | > 100 µM (inactive) | > 100 µM (inactive) | > 100 µM (inactive) | > 100 µM (inactive) | > 100 µM (inactive) | > 100 µM (inactive) |
| N[C@H]1c2c(Br)sc(Br)c2C(=O)[C@H]1O | 24.7 µM (inactive) | 2.72 µM (inactive) | 6.78 | 11.2 µM (inactive) | 14 µM (inactive) | 34.9 µM (inactive) | – | 11.6 µM (inactive) | 22.2 µM (inactive) | 11.4 µM (inactive) | 12.9 µM (inactive) | 27.4 µM (inactive) | 24.9 µM (inactive) | 1.56 µM (inactive) | 6.41 µM (inactive) | 14.4 µM (inactive) | 20.3 µM (inactive) | 31 µM (inactive) | 16 µM (inactive) | 4.95 µM (inactive) |
| COc1cc(CNc2cnc3cc(N)ccc3n2)cc(OC)c1OC | 66.1 µM (inactive) | 31.4 µM (inactive) | 23 | 16.9 µM (inactive) | 39.3 µM (inactive) | 66.4 µM (inactive) | 16.5 µM (inactive) | 52.5 µM (inactive) | – | > 100 µM (inactive) | 37.4 µM (inactive) | – | > 100 µM (inactive) | 54.5 µM (inactive) | 20 µM (inactive) | 29.2 µM (inactive) | – | – | – | – |
| CN(C)CC1CCC/C(=C\c2ccc(OC(=O)/C=C/c3ccc(Cl)cc3)cc2)C1=O (configuration not stated) | 2.43 µM (inactive) | 1.06 µM (active) | 2.01 | 2.07 µM (inactive) | 1.43 µM (inactive) | 1.47 µM (inactive) | – | 9.06 µM (inactive) | 11 µM (inactive) | 12.5 µM (inactive) | 5.62 µM (inactive) | 0.294 µM (active) | 4.09 µM (inactive) | 3.92 µM (inactive) | 1.69 µM (inactive) | 3.13 µM (inactive) | 5.2 µM (inactive) | 4.92 µM (inactive) | 7.43 µM (inactive) | 1.32 µM (inactive) |
| COc1cc(/C=C2\CC(C)C/C(=C\c3ccc(O)c(OC)c3)C2=O)ccc1O (configuration not stated) | 3.13 µM (inactive) | 2.56 µM (inactive) | 1.73 | 6.37 µM (inactive) | 2.4 µM (inactive) | 1.85 µM (inactive) | – | 1.9 µM (inactive) | 4.85 µM (inactive) | 2.52 µM (inactive) | 9.2 µM (inactive) | 3.58 µM (inactive) | 4.31 µM (inactive) | 2.56 µM (inactive) | 2.24 µM (inactive) | 2.38 µM (inactive) | 3.72 µM (inactive) | 2.05 µM (inactive) | 17.5 µM (inactive) | 2.85 µM (inactive) |
